Structures are written as SMILES.

For data set [1], the system named is TPTX rats. The data set is described as follows: Repeated administration study in TPTX rats, study 1. The format is in vivo, rat. Here is the method:
TPTX was carried out in 6-week-old female Crl:CD (SD) rats (Charles River Laboratories). Rats with serum Ca levels of <8.0 mg dl^−1 at 5 days after surgery were used in the following experiments. The rats were divided into four groups both in study 1 and 2, each with a similar mean value of serum Ca levels and body weight. Sample sizes were determined as described in the above single administration study. To evaluate the calcemic effects of PCO371 and hPTHs, we defined a target therapeutic range for serum Ca of 7.6–11.2 mg dl^−1, which corresponds to the low normal to normal range of serum Ca levels.
TPTX rats were treated twice daily (at around 09:00 and 19:00 hours) orally (vehicle or PCO371 at 1, 3 or 9 mg kg^−1) or subcutaneously [hPTH(1–34) or vehicle at 9 nmol kg^−1] for 4 weeks. Four rats were assigned to sham control, and treated with vehicle for PCO371. Vehicles for PCO371 and hPTH(1–34) were the same as in the OVX rat study. Under isoflurane anaesthesia, jugular vein blood was collected immediately before and at 6 and 10 h (for PCO371) or at 1 and 10 h (for hPTH) after administrations to measure the serum Ca levels on days 1 (the first dosing day), 7, 14, 22 and 29. Urine was collected for 24 h by using metabolic cages on days 29–30, and Ca excretion was calculated from urine volume and Ca level. Under isoflurane anaesthesia, jugular vein blood was collected 10 h after administrations to measure serum 1,25(OH)2D3 levels on Day 29 by using a 1,25(OH)2D3 RIA kit (Fujirebio). Four or five TPTX rats were assigned to each dose group. Serum and urine Ca levels were measured in the same way as in the single-dosing study. In another experiment, TPTX rats were treated subcutaneously once daily with hPTH(1–84) at 9 nmol kg^−1, for 4 weeks. Serum Ca was measured immediately before and at 2, 6 and 10 h after administration on day 1 (the first dosing day), 7, 14, 21 and 28 using the same method as described above. Urine was collected for 24 h by using metabolic cages on days 28 and 29, and Ca excretion was calculated from urine volume and Ca level.

Data set [2] relates to normal dogs. The data set is described as follows: Single administration study in normal dogs. The format is in vivo, dog. The following applies: single oral administrations 3.0−30 mg kg^−1. Here is the method:
Marshall Beagle dogs (20 months old, male, Marshall BioResources Japan Inc) were treated once orally (vehicle or PCO371 at 3, 10 or 30 mg kg^−1). Six dogs were assigned to each group. Vehicle for PCO371 was the same as in the rat studies. The sample size was determined based on previous experiments with hPTHs in our laboratories (n=6). Blood was collected from the cephalic vein immediately before and at 1, 2, 4, 6, 8, 10 and 24 h after administration to measure serum Ca levels (o-CPC method, Wako Pure Chemical Industries).

Data set [3] concerns TPTX rats. The data set is described as follows: Single administration study in TPTX rats. In kind it is in vivo, rat. The conditions noted are these: TPTX rats, single oral administration. Here is the method:
TPTX was carried out in 6-week-old female Crl:CD(SD) rats (Charles River Laboratories). Rats with serum Ca levels of <8.0 mg dl^−1 at 5 days after surgery were used for the experiment. The rats were divided into six groups, each with a similar mean value of serum Ca levels and body weight. TPTX rats were treated once orally (vehicle or PCO371 at 1.3, 6.5 or 33 mg kg^−1) or subcutaneously (vehicle or hPTH(1–84) (Chugai Pharmaceutical) at 9 nmol kg^−1). Six TPTX rats were assigned to each dose group. The sample size was determined based on previous experiments and a published study with hPTHs and LA-PTH in our laboratories[24] (n=5–6). Vehicle for PCO371 was the same as in the OVX rat study, and phosphate-citrate buffer (pH 6.0) was used as vehicle for hPTH(1–84). Under isoflurane anaesthesia, jugular vein blood was collected immediately before and at 1, 2, 6, 10 and 24 h after administrations to measure serum Ca (o-CPC method, Wako Pure Chemical Industries) and Pi levels (xanthine oxidase method, Wako Pure Chemical Industries).
In another experiment, the effects of a single treatment with PCO371 or hPTH(1–34) on serum Ca and Pi in TPTX rats (6-week-old) were evaluated at the dose of 3, 9.5 or 30 mg kg^−1 (PCO371, p.o.) or 9 nmol kg^−1 (hPTH(1–34), s.c.) according to the same method as that described above.

As to `Cc1cc(N2C(=O)NC(=O)C2(C)C)cc(C)c1CCS(=O)(=O)N1CCC2(CC1)N=C(c1ccc(OC(F)(F)F)cc1)NC2=O` [PCO371, 1-{3,5-dimethyl-4-[2-({4-oxo-2-[4-(trifluoromethoxy)phenyl]-1,3,8-triazaspiro[4.5]dec-1-en-8-yl}sulfonyl)ethyl]phenyl}-5,5-dimethylimidazolidine-2,4-dione], the “Serum 1,25(OH)2D3 levels” value in data set [1] (9 mg kg^−1 twice-daily oral, 4 weeks) was “increased significantly”. Besides, the “urinary Ca excretion” value in data set [1] (after 4-week treatment, up to 9 mg kg^−1 twice-daily oral) was “not increased”. Besides, the “hypercalcemia (>11.2 mg dl^−1)” value in data set [1] (at 0, 6 and 10 h after administrations on days 1, 7, 14, 22 and 29) was “no hypercalcemia”. Moreover, the “time serum Ca maintained within the target range after each administration” value in data set [1] (twice-daily oral 3 mg kg^−1 or more, 4 weeks) is recorded as “at least 6 h”. The “body weight or general condition vs vehicle-treated rats” value in data set [1] (twice-daily oral, 4 weeks) was “no significant difference”. Further, the “dose that increased serum Ca to within the target therapeutic range” value in data set [1] (twice-daily oral, 4 weeks, range 7.6–11.2 mg dl^−1) is at least 3 mg/kg. Besides, the “serum Ca” value in data set [2] is recorded as “significantly increased”. In data set [3], the “serum Ca” value was “dose-dependently increased” and the “serum Pi” value is given as “decreased”.

Values taken from article PMC5120204, “Identification of an orally active small-molecule PTHR1 agonist for the treatment of hypoparathyroidism” (Nature Communications, 2016).
